The source of these data is patent US12421252B2, “Spiro (isobenzofuranazetidine) compounds for the treatment of autoimmune disease” (Hoffmann-La Roche Inc., priority 2020, dated 2025).

SMILES strings stand for the structures.

Usually IC50 stands for the concentration that gives 50% inhibition. Low readings indicate higher potency, high ones lower potency. What is called IC20 is the concentration needed for an effect of 20%. Low readings indicate greater potency, high ones weaker potency.

One series deals with T1, CYP3A4 (Homo sapiens, UniProt P08684).
T1 construct: tissue BD-Gentest 452117; host or cells: human liver microsomes
The series is described as follows: CYP inhibition assay in human liver microsome, CYP3A4. In kind it is in vitro ADME. Conditions: percentage inhibition, substrate Midazolam 5 μM, <0: not or weak inhibitor. The protocol:
This is a high throughput screening assay used for assessment of reversible inhibition of CYP2C9, CYP2D6, and CYP3A4 activity of test compounds in human liver microsome (HLM) in early discovery stage.
Procedure 10 mM DMSO stock solutions of test compounds were diluted in DMSO to generate 2 mM intermediate stock solution. 250 nL of intermediate stock solution were transferred in duplicate into 3 separate 384 well microtitre plates (assay-ready plates). A mixture of HLM and each substrate was made up. 45 μL of HLM substrate mix was then transferred to each well of an assay ready plate and mixed. The negative (solvent) and positive controls (standard inhibitor for each CYP) were included in each assay ready plate. The assay ready plate was warmed to 37° C. in an incubator over 10 minutes. 5 μL pre-warmed NADPH regenerating system was added to each incubation well to start the reaction. Final incubation volume was 50 μL. The assay plate then was placed back in the 37° C. incubator. After incubation (10 minutes for CYP2D6) for 5 minutes, incubates were quenched by addition of 50 μL 100% acetonitrile containing internal standards (400 ng/mL 13C6-4′-OH-Diclofenac, 20 ng/mL D3-Dextrorphan and 20 ng/mL D4-1′OH-Midazolam). The supernatants were collected for RapidFire/MS/MS analysis.
RapidFire online solid phase extraction/sample injection system (Agilent) coupled with API4000 triple quadrupole mass spectrometer (AB Sciex) were used for sample analysis. The mobile phase composed of acetonitrile and water supplemented with 0.1% formic acid. A C4 solid phase extraction cartridge is used for sample separation. MS detection is achieved in positive ion MRM mode.
Data analysis Peak areas for substrate, metabolite and internal standard are determined using the RapidFire integrator software (version 3.6.12009.12296). Peak area ratios (PAR) of metabolite and internal standard (stable-labelled metabolite) are then calculated. The measurement window for each experiment is then defined: PAR (0% activity)=average PAR for all incubations containing concentrated inhibitor; Par (100% activity)=average PAR for all incubations containing no inhibitor (DMSO controls); % Activity (test inhibitor)=[PAR (test inhibitor)-PAR (0% activity)]/[PAR (100% activity)-PAR (0% activity)]; % Inhibition (test inhibitor)=100-% Activity (test inhibitor).

Another series concerns the target T2, hERG channel (Homo sapiens, UniProt Q12809).
T2 construct: expressed in transfected cells
The series is described as follows: hERG channel inhibition assay (patch-clamp, CHO hERG cells). In kind it is cell-based. The following applies: for IC50 / IC20: CHO hERG cells, whole-cell patch-clamp; for IC20: human, CHO cells stably expressing hERG; for hERG IC20/TLR7 IC50 / hERG IC20/TLR8 IC50 / hERG IC20/TLR9 IC50: safety ratio. Here is the method: hERG Channel Inhibition Assay:
The hERG K+ channels were cloned in humans and stably expressed in a CHO (Chinese hamster ovary) cell line. CHOhERG cells were used for patch-clamp (voltage-clamp, whole-cell) experiments. Cells were stimulated by a voltage pattern to activate hERG channels and conduct IKhERG Currents (rapid delayed outward rectifier potassium current of the hERG channel). After the cells were stabilized for a few minutes, the amplitude and kinetics of IKhERG were recorded at a stimulation frequency of 0.1 Hz, (6 bpm). Thereafter, the test compound was added to the preparation at increasing concentrations. For each concentration, an attempt was made to reach a steady-state effect, usually, this was achieved within 3-10 min at which time the next highest concentration was applied. The amplitude and kinetics of IKhERG are recorded in each concentration of the drug which were compared to the control values (taken as 100%). (references: Redfern W S, Carlsson L, Davis A S, Lynch W G, MacKenzie I, Palethorpe S, Siegl P K, Strang I, Sullivan A T, Wallis R, Camm A J, Hammond T G. 2003; Relationships between preclinical cardiac electrophysiology, clinical QT interval prolongation and torsade de pointes for a broad range of drugs: evidence for a provisional safety margin in drug development. Cardiovasc. Res. 58:32-45, Sanguinetti M C, Tristani-Firouzi M. 2006; hERG potassium channels and cardiac arrhythmia. Nature 440:463-469, Webster R, Leishman D, Walker D. 2002; Towards a drug concentration effect relationship for QT prolongation and torsades de pointes. Curr. Opin. Drug Discov. Devel. 5:116-26).
For orientation: The hERG channel carries a current that helps repolarise heart muscle cells.

T2 sequence (Q12809 whole entry): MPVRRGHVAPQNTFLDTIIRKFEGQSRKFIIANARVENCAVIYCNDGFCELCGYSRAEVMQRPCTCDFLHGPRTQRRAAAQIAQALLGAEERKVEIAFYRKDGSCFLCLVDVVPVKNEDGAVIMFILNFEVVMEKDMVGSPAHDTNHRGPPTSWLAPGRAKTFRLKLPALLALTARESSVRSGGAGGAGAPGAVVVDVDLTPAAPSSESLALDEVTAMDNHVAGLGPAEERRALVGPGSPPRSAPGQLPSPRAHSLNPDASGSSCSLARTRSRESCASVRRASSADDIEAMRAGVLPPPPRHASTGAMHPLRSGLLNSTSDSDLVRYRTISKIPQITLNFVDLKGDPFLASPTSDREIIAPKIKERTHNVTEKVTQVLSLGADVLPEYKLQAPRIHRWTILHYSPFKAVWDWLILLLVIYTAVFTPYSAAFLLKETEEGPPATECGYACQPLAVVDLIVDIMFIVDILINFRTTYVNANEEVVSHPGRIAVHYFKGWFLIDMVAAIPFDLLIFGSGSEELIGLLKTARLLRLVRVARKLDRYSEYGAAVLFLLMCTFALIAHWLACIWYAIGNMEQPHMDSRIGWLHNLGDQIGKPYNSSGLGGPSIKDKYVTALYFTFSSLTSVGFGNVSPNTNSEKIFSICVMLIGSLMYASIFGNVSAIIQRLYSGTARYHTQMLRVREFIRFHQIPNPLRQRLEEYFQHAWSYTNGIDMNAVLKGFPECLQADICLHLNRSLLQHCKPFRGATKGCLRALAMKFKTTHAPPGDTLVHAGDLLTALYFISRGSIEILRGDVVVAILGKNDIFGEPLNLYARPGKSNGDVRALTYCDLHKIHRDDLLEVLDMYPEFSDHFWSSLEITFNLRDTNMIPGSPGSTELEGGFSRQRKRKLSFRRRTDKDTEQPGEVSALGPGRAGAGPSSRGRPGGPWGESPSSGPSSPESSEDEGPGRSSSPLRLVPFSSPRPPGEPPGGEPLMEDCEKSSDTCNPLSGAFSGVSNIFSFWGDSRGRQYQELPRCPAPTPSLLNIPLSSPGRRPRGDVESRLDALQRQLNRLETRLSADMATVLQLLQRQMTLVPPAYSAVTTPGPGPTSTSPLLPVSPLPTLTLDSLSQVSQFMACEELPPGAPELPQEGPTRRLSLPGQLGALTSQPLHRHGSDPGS
T1 sequence (P08684 whole entry): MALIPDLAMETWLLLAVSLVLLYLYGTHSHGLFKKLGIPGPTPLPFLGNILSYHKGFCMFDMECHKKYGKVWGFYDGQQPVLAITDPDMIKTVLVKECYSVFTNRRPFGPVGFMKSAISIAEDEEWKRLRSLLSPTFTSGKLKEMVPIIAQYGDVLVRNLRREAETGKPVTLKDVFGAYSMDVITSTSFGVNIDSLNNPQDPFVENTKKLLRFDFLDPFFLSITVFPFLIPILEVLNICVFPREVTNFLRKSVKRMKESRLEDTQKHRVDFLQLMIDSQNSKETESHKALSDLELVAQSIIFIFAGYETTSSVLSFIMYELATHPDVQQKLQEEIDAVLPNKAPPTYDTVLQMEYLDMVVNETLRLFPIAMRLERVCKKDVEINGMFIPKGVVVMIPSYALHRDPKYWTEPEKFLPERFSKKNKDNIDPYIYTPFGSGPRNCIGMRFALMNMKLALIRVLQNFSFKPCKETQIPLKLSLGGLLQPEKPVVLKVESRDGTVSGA

With `C[C@@H]1CN(c2ccc(C#N)n3nccc23)C[C@H](CN2CC3(C2)OCc2cc(N4CC5(CNCCO5)C4)ccc23)O1` [Example 7, 4-[(2R,6S)-2-methyl-6-[[6-(5-oxa-2,8-diazaspiro[3.5]nonan-2-yl)spiro[1H-isobenzofuran-3,3′-azetidine]-1′-yl]methyl]morpholin-4-yl]pyrazolo[1,5-a]pyridine-7-carbonitrile], the “CYP (%) 3A4” value at CYP3A4 stood at 16.5%.

In the case of `C[C@@H]1CN(c2ccc(C#N)n3ncc(F)c23)C[C@H](CN2CC3(C2)OCc2cc(N4CC5(CN(C)C5)C4)ccc23)O1` [Example 2, 3-fluoro-4-[(2R,6S)-2-methyl-6-[[6-(6-methyl-2,6-diazaspiro[3.3]heptan-2-yl)spiro[1H-isobenzofuran-3,3′-azetidine]-1′-yl]methyl]morpholin-4-yl]pyrazolo[1,5-a]pyridine-7-carbonitrile], at hERG channel, the IC50 was > 20 µM, the 20% effect level (IC20) was put at 9.9 µM, the “hERG IC20/TLR7 IC50” value is 990 and the “hERG IC20/TLR8 IC50” value was 396. The “hERG IC20/TLR9 IC50” value on hERG channel is 220.

As to `[2H]c1ccc2c(N3C[C@H](CN4CC5(C4)OCc4cc(N6CC(N)C6)cnc45)O[C@H](C)C3)ccc(C#N)c2n1` [Example 20, 5-[(2S,6R)-2-[[3-(3-aminoazetidin-1-yl)spiro[5H-furo[3,4-b]pyridine-7,3′-azetidine]-1′-yl]methyl]-6-methyl-morpholin-4-yl]-2-deuterio-quinoline-8-carbonitrile], on CYP3A4, the “CYP (%) 3A4” value worked out at 40.5%.

Turning to `[2H]c1ccc2c(N3C[C@H](CN4CC5(C4)OCc4cc(N6CC(C)(N)C6)cnc45)O[C@H](C)C3)ccc(C#N)c2n1` [Example 21, 5-[(2S,6R)-2-[[3-(3-amino-3-methyl-azetidin-1-yl)spiro[5H-furo[3,4-b]pyridine-7,3′-azetidine]-1′-yl]methyl]-6-methyl-morpholin-4-yl]-2-deuterio-quinoline-8-carbonitrile], on hERG channel, the IC50 was > 20 µM, the IC20 was > 10 µM, the “hERG IC20/TLR7 IC50” value was >1428 and the “hERG IC20/TLR8 IC50” value is given as >588. Besides, the “hERG IC20/TLR9 IC50” value on hERG channel is >181. Further, the “CYP (%) 3A4” value at CYP3A4 worked out at 12.5%.

`C[C@@H]1CN(c2ccc(C#N)n3ncc(F)c23)C[C@H](CN2CC3(C2)OCc2cc(N4CC(C)(N)C4)ncc23)O1` [Example 24, 4-[(2S,6R)-2-[[6-(3-amino-3-methyl-azetidin-1-yl)spiro[1H-furo[3,4-c]pyridine-3,3′-azetidine]-1′-yl]methyl]-6-methyl-morpholin-4-yl]-3-fluoro-pyrazolo[1,5-a]pyridine-7-carbonitrile]: the “CYP (%) 3A4” value at CYP3A4 is recorded as −0.5%.

As to `[2H]c1ccc2c(N3C[C@H](CN4CC5(C4)OCc4cc(N6C[C@H]7NCCO[C@@H]7C6)ccc45)O[C@H](C)C3)ccc(C#N)c2n1` [Example 17, 5-[(2S,6R)-2-[[6-[(4aR,7aR)-3,4,4a,5,7,7a-hexahydro-2H-pyrrolo[3,4-b][1,4]oxazin-6-yl]spiro[1H-isobenzofuran-3,3′-azetidine]-1′-yl]methyl]-6-methyl-morpholin-4-yl]-2-deuterio-quinoline-8-carbonitrile], the “CYP (%) 3A4” value on CYP3A4 turned out to be 14%.
